From patent publication US20230391760A1, “HETEROCYCLIC GLP-1 AGONISTS” (Gasherbrum Bio, Inc., priority 2020, published 2023) come the findings set out here.

What is called EC50 is the concentration needed to bring the measured effect to its halfway point. A low value points to an effect from little substance.

Structures are written as SMILES.

Chain of GLP-1 Receptor (P43220 24-463, species assumed): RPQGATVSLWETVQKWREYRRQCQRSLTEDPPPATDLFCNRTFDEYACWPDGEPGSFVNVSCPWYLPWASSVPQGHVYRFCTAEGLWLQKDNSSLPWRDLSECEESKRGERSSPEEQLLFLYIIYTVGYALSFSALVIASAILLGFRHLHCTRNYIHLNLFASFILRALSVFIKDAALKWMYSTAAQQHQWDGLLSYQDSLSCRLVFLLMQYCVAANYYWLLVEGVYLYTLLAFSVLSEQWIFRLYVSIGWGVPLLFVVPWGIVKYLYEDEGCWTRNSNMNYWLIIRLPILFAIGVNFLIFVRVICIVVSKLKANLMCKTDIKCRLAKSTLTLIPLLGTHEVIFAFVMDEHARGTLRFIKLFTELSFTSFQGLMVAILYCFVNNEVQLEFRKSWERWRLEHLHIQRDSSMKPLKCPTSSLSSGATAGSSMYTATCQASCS

In this assay the target is GLP-1 Receptor (Homo sapiens, UniProt P43220). In words: GLP-1R agonist cAMP stimulation assay (HEK293/GLP1R/CRE-LUC cells, cAMP dynamic 2 Kit). The format is cell-based. The note with it: HEK293/CRE-Luc cell line stably expressing the GLP-1 Receptor, 30 min at 37° C. The method in brief:
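cAMP measured by HTRF competition (d2-labelled cAMP with cryptate antibody, 1 h, room temperature, protected from light). Before that, GLP1R/CRE-Luc HEK293 cells (1000/well) were exposed for 30 min at 37 °C to half-log compound dilutions in DPBS containing IBMX 0.5 mM and BSA 0.1%.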
In turn, `Fc1cc(C(F)(F)F)ccc1COc1cccc(C2CCN(Cc3nc4cc(-c5nnc(C(F)(F)F)[nH]5)ncc4n3C[C@@H]3CCO3)CC2)n1` [Compound 497a, 2-{[2-fluoro-4-(trifluoromethyl)phenyl]methoxy}-6-{1-[(3-{[(2S)-oxetan-2-yl]methyl}-6-[5-(trifluoromethyl)-4H-1,2,4-triazol-3-yl]-3H-imidazo[4,5-c]pyridin-2-yl)methyl]piperidin-4-yl}pyridine] came in with an EC50 of 0.034 nM.
Turning to `Fc1cc(C2CC2)ccc1COc1cccc(C2CCN(Cc3nc4cc(-c5nnc(C(F)(F)F)[nH]5)ncc4n3C[C@@H]3CCO3)CC2)n1` [Compound 498a, 2-[(4-cyclopropyl-2-fluorophenyl)methoxy]-6-{1-[(3-{[(2S)-oxetan-2-yl]methyl}-6-[5-(trifluoromethyl)-4H-1,2,4-triazol-3-yl]-3H-imidazo[4,5-c]pyridin-2-yl)methyl]piperidin-4-yl}pyridine], the midpoint of the response, the EC50, lay at 0.099 nM.
Next, `Fc1cc(Cl)ccc1COc1cccc(C2CCN(Cc3nc4cc(-c5nnc(C(F)(F)F)[nH]5)ncc4n3C[C@@H]3CCO3)CC2F)n1` (stereo partly drawn) [Compound 499a, 2-[(4-chloro-2-fluorophenyl)methoxy]-6-[(3,4-trans)-3-fluoro-1-[(3-{[(2S)-oxetan-2-yl]methyl}-6-[5-(trifluoromethyl)-4H-1,2,4-triazol-3-yl]-3H-imidazo[4,5-c]pyridin-2-yl)methyl]piperidin-4-yl]pyridine]: 0.04 nM; `Fc1cc(Cl)ccc1COc1cccc(C2CCN(Cc3nc4cc(-c5nnc(C(F)(F)F)[nH]5)cnc4n3C[C@@H]3CCO3)CC2F)n1` (stereo partly drawn) [Compound 500a, 2-[(4-chloro-2-fluorophenyl)methoxy]-6-[(3,4-trans)-3-fluoro-1-[(3-{[(2S)-oxetan-2-yl]methyl}-6-[5-(trifluoromethyl)-4H-1,2,4-triazol-3-yl]-3H-imidazo[4,5-b]pyridin-2-yl)methyl]piperidin-4-yl]pyridine]: 0.078 nM; `Fc1cc(Cl)ccc1COc1ccc(F)c(N2CCN(Cc3nc4cc(-c5nnc(C(F)(F)F)[nH]5)ncc4n3C[C@@H]3CCO3)CC2)n1` [Compound 501a, 1-{6-[(4-chloro-2-fluorophenyl)methoxy]-3-fluoropyridin-2-yl}-4-[(3-{[(2S)-oxetan-2-yl]methyl}-6-[5-(trifluoromethyl)-4H-1,2,4-triazol-3-yl]-3H-imidazo[4,5-c]pyridin-2-yl)methyl]piperazine]: 0.038 nM.
On to `Fc1cc(Cl)ccc1COc1ccc(F)c(N2CCN(Cc3nc4cc(-c5nnc(C(F)(F)F)[nH]5)nnc4n3C[C@@H]3CCO3)CC2)n1` [Compound 502a, 1-{6-[(4-chloro-2-fluorophenyl)methoxy]-3-fluoropyridin-2-yl}-4-[(7-{[(2S)-oxetan-2-yl]methyl}-3-[5-(trifluoromethyl)-4H-1,2,4-triazol-3-yl]-7H-imidazo[4,5-c]pyridazin-6-yl)methyl]piperazine], for which the EC50 came to 0.092 nM.
The value for `N#Cc1ccc(COc2ccc(F)c(N3CCN(Cc4nc5cc(-c6nnc(C(F)(F)F)[nH]6)nnc5n4C[C@@H]4CCO4)CC3)n2)c(F)c1` [Compound 503a, 3-fluoro-4-{[(5-fluoro-6-{4-[(7-{[(2S)-oxetan-2-yl]methyl}-3-[5-(trifluoromethyl)-4H-1,2,4-triazol-3-yl]-7H-imidazo[4,5-c]pyridazin-6-yl)methyl]piperazin-1-yl}pyridin-2-yl)oxy]methyl}benzonitrile] was 0.078 nM.
The value for `Fc1cc(Cl)ccc1COc1nc(C2CCN(Cc3nc4cc(-c5nnc(C(F)(F)F)[nH]5)cnc4n3C[C@@H]3CCO3)CC2)ncc1F` [Compound 504a, 4-[(4-chloro-2-fluorophenyl)methoxy]-5-fluoro-2-{1-[(3-{[(2S)-oxetan-2-yl]methyl}-6-[5-(trifluoromethyl)-4H-1,2,4-triazol-3-yl]-3H-imidazo[4,5-b]pyridin-2-yl)methyl]piperidin-4-yl}pyrimidine] was 0.092 nM; that for `Fc1cc(Cl)ccc1COc1nccc(C2CCN(Cc3nc4cc(-c5nnc(C(F)(F)F)[nH]5)ncc4n3C[C@@H]3CCO3)CC2)n1` [Compound 505a, 2-[(4-chloro-2-fluorophenyl)methoxy]-4-{1-[(3-{[(2S)-oxetan-2-yl]methyl}-6-[5-(trifluoromethyl)-4H-1,2,4-triazol-3-yl]-3H-imidazo[4,5-c]pyridin-2-yl)methyl]piperidin-4-yl}pyrimidine] was 0.045 nM; that for `C[C@H]1CN(c2ccc(F)c(OCc3ccc(C#N)cc3F)c2)CCN1Cc1nc2cc(-c3nnc(C(F)(F)F)[nH]3)ncc2n1C[C@@H]1CCO1` [Compound 506a, 3-fluoro-4-({2-fluoro-5-[(3S)-3-methyl-4-[(3-{[(2S)-oxetan-2-yl]methyl}-6-[5-(trifluoromethyl)-4H-1,2,4-triazol-3-yl]-3H-imidazo[4,5-c]pyridin-2-yl)methyl]piperazin-1-yl]phenoxy}methyl)benzonitrile] was 0.076 nM.
`N#Cc1ccc(COc2nccc(C3CCN(Cc4nc5cc(-c6nnc(C(F)(F)F)[nH]6)ncc5n4C[C@@H]4CCO4)CC3)n2)c(F)c1` [Compound 507a, 3-fluoro-4-{[(4-{1-[(3-{[(2S)-oxetan-2-yl]methyl}-6-[5-(trifluoromethyl)-4H-1,2,4-triazol-3-yl]-3H-imidazo[4,5-c]pyridin-2-yl)methyl]piperidin-4-yl}pyrimidin-2-yl)oxy]methyl}benzonitrile] displayed an EC50 of 0.068 nM.
Next, `Fc1cc(Cl)ccc1COc1nccc(C2CCN(Cc3nc4cc(-c5nnc(C(F)(F)F)[nH]5)nnc4n3C[C@@H]3CCO3)CC2)n1` [Compound 508a, 2-[(4-chloro-2-fluorophenyl)methoxy]-4-{1-[(7-{[(2S)-oxetan-2-yl]methyl}-3-[5-(trifluoromethyl)-4H-1,2,4-triazol-3-yl]-7H-imidazo[4,5-c]pyridazin-6-yl)methyl]piperidin-4-yl}pyrimidine]: 0.42 nM.
The value for `N#Cc1ccc(COc2nc(C3CCN(Cc4nc5cc(-c6nnc(C(F)(F)F)[nH]6)ncc5n4C[C@@H]4CCO4)CC3)ncc2F)c(F)c1` [Compound 509a, 3-fluoro-4-{[(5-fluoro-2-{1-[(3-{[(2S)-oxetan-2-yl]methyl}-6-[5-(trifluoromethyl)-4H-1,2,4-triazol-3-yl]-3H-imidazo[4,5-c]pyridin-2-yl)methyl]piperidin-4-yl}pyrimidin-4-yl)oxy]methyl}benzonitrile] was 0.074 nM.
The value for `Fc1cc(Cl)ccc1COc1nc(C2CCN(Cc3nc4cc(-c5nnc(C(F)(F)F)[nH]5)nnc4n3C[C@@H]3CCO3)CC2)ncc1F` [Compound 510a, 4-[(4-chloro-2-fluorophenyl)methoxy]-5-fluoro-2-{1-[(7-{[(2S)-oxetan-2-yl]methyl}-3-[5-(trifluoromethyl)-4H-1,2,4-triazol-3-yl]-7H-imidazo[4,5-c]pyridazin-6-yl)methyl]piperidin-4-yl}pyrimidine] was 0.16 nM; that for `Fc1cc(Cl)ccc1COc1nc(N2CCN(Cc3nc4cc(-c5nnc(C(F)(F)F)[nH]5)cnc4n3C[C@@H]3CCO3)CC2)ncc1F` [Compound 511a, 4-[(4-chloro-2-fluorophenyl)methoxy]-5-fluoro-2-{4-[(3-{[(2S)-oxetan-2-yl]methyl}-6-[5-(trifluoromethyl)-4H-1,2,4-triazol-3-yl]-3H-imidazo[4,5-b]pyridin-2-yl)methyl]piperazin-1-yl}pyrimidine] was 0.079 nM.
